System: PD1/PD-L1 pathway
Test: PD1/PD-L1 Blockade Bioassay, inhibition of the PD1/PD-L1 pathway at the cellular level (luciferase reporter, PD-1 Jukat T cells co-cultured with PD-L1 aAPC/CHO-K1 cells)
Type: cell-based
Conditions: T-cell; for EC50: PD-1 Jukat T cells + PD-L1 aAPC/CHO-K1 cells, 6 h co-culture, ONE-Glo luciferase readout; for Emax: maximum % Activity relative to atezolizumab (set to 100%)
Procedure: Experiment 1: Detecting the Inhibitory Activity of Compounds on the PD1/PD-L1 Pathway at the Cellular Level Using the PD1/PD-L1 Blockade Bioassay Method
PD-1 Jukat T cells were revived and cultured with 1640 medium containing 100 μg/mL Hygromycin B, […] Puromycin, 10% FBS and 1% dual antibody; PD-L1 aAPC/CHO-K1 cells were revived and cultured with F12K medium containing 100 μg/mL Hygromycin B, 200 μg/mL G418, 10% FBS and 1% dual antibody.
The revived cells need to be passaged 2-3 times. When the cells enter the exponential growth phase with good growth status, the PD-L1 aAPC/CHO-K1 was digested with trypsin, and the cells were resuspended in F12K containing 5% FBS and adjusted to a density of 5×10^5 cells/mL. 20 μl/well were plated in a 384-well plate (10,000 cells/well) and incubated in an incubator overnight for 16-20 h.
a Preparation of compound stock solution: Dissolve the compound to be tested in DMSO to prepare a 20 mM stock solution.
b Compound gradient dilution: dilute the compound in 1640 medium containing 5% FBS without antibiotics or phenol red, and make 3-fold gradient dilutions to prepare 10 concentration gradients (2×).
c Adding drugs: Take out the cell culture plate, discard the supernatant, add 20 μl/well of the prepared compound, and incubate in the incubator for 1.5 h.
PD-1 Jukat T cells were collected, washed once with PBS, and resuspended in 1640 medium containing 5% FBS without antibiotics or phenol red. The density was adjusted to 1×10^6 cells/mL. 20 μl PD-1 Jukat T cells (20,000 cells/well) were added to each well and incubated in the incubator for 6 h.
ONE-Glo™ Luciferase Assay reagent was thawed to room temperature in advance and then added to a 384-well plate at 40 µl/well. Incubate in the dark for 15 minutes and read the […] signal on a plate reader.
[formula] • Among them, % Activity: % Activity • RLU: Resulting Luminescence unit • RLUvehicle: Average RLU value of negative control wells on each plate • RLUpositive: Average RLU value of positive control wells on each plate • Vehicle control: DMSO (0.1%) corresponding to the test value was used as negative control (its % Activity was 0%); • Positive control: The highest detection value at the atezolizumab administration concentration was used as the positive control (its % Activity was 100%). • (2) EC50 value calculation method: The EC50 value was obtained by the nonlinear fitting formula of Graph Pad Prism 8.0 software. The calculation formula is as follows:
Y=Bottom+(Top−Bottom)/(1+10^((Log EC50−X)×HillSlope)) • X: log of activator concentration (logarithm of compound concentration); Y: % Activity • (3) Emax definition: The maximum % Activity value corresponding to the maximum activation value of the compound relative to atezolizumab (the activation value is set to 100%).

| Compound | EC50 [µM] | Emax [%] |
| --- | --- | --- |
| COc1nc(-c2cccc(-c3cccc(Nc4nc(C(F)F)nc5cc(CN6CC[C@H](O)C6)cnc45)c3C)c2Cl)cnc1CN[C@@H]1CCOC[C@@H]1O [Example 51, (S)-1-((4-((2′-chloro-3′-(5-((((3R,4R)-3-hydroxytetrahydro-2H-pyran-4-yl)amino)methyl)-6-methoxypyrazin-2-yl)-2-methyl-[1,1′-biphenyl]-3-yl)amino)-2-(difluoromethyl)pyrido[3,2-d]pyrimidin-7-yl)methyl)pyrrolidin-3-ol] | 0.0991 | 96 |
| COc1nc(-c2cccc(-c3cccc(Nc4nc(C(F)F)nc5cc(CN6CC[C@](C)(O)C6)cnc45)c3C)c2Cl)cnc1CN(C)[C@H]1CC[C@H](C(=O)O)CC1 [Example 46, (1r,4r)-4-(((5-(2-chloro-3′-((2-(difluoromethyl)-7-(((S)-3-hydroxy-3-methylpyrrolidin-1-yl)methyl)pyrido[3,2-d]pyrimidin-4-yl)amino)-2′-methyl-[1,1′-biphenyl]-3-yl)-3-methoxypyrazin-2-yl)methyl)(methyl)amino)cyclohexane-1-carboxylic acid] | 0.0607 | 86.7 |
| COc1nc(-c2cccc(-c3cccc(Nc4nc(C(F)F)nc5cc(CN6CC[C@H](CO)C6)cnc45)c3C)c2Cl)cnc1CN(C)[C@H]1CC[C@H](C(=O)O)CC1 [Example 28, (1r,4r)-4-(((5-(2-chloro-3′-((2-(difluoromethyl)-7-(((S)-3-(hydroxymethyl)pyrrolidin-1-yl)methyl)pyrido[3,2-d]pyrimidin-4-yl)amino)-2′-methyl-[1,1′-biphenyl]-3-yl)-3-methoxypyrazin-2-yl)methyl)(methyl)amino)cyclohexane-1-carboxylic acid] | 0.0495 | 95 |
| COc1nc(-c2cccc(-c3cccc(Nc4nc(C(F)F)nc5cc(CN6CC[C@@H](O)C6)cnc45)c3C)c2Cl)cnc1CN(C)[C@H]1CC[C@H](C(=O)O)C1 [Example 52, (1S,3S)-3-(((5-(2-chloro-3′-((2-(difluoromethyl)-7-(((R)-3-hydroxypyrrolidin-1-yl)methyl)pyrido[3,2-d]pyrimidin-4-yl)amino)-2′-methyl-[1,1′-biphenyl]-3-yl)-3-methoxypyrazin-2-yl)methyl)(methyl)amino)cyclopentane-1-carboxylic acid] | 0.0758 | 74.3 |
| COc1nc(-c2cccc(-c3cccc(Nc4nc(C(F)F)nc5cc(CN6CC[C@H](O)C6)cnc45)c3C)c2Cl)cnc1CN1CC[C@H](O)C1 [Example 50, (S)-1-((5-(2-chloro-3′-((2-(difluoromethyl)-7-(((S)-3-hydroxypyrrolidin-1-yl)methyl)pyrido[3,2-d]pyrimidin-4-yl)amino)-2′-methyl-[1,1′-biphenyl]-3-yl)-3-methoxypyrazin-2-yl)methyl)pyrrolidin-3-ol] | 0.0991 | 96 |
| COc1nc(-c2cccc(-c3cccc(Nc4nc(C(F)F)nc5cc(CN6CC(C)(O)C6)cnc45)c3C)c2Cl)cnc1CN(C)[C@H]1CC[C@H](C(=O)O)CC1 [Example 19, (1r,4r)-4-(((5-(2-chloro-3′-((2-(difluoromethyl)-7-((3-hydroxy-3-methylazetidin-1-yl)methyl)pyrido[3,2-d]pyrimidin-4-yl)amino)-2′-methyl-[1,1′-biphenyl]-3-yl)-3-methoxypyrazin-2-yl)methyl)(methyl)amino)cyclohexane-1-carboxylic acid] | 0.0432 | 80 |
| COc1nc(-c2cccc(-c3cccc(Nc4nc(C(F)F)nc5cc(CN6CC[C@H]([C@H](C)O)C6)cnc45)c3C)c2Cl)cnc1CN(C)[C@H]1CC[C@H](C(=O)O)CC1 [Example 45, (1r,4r)-4-(((5-(2-chloro-3′-((2-(difluoromethyl)-7-(((S)-3-((S)-1-hydroxyethyl)pyrrolidin-1-yl)methyl)pyrido[3,2-d]pyrimidin-4-yl)amino)-2′-methyl-[1,1′-biphenyl]-3-yl)-3-methoxypyrazin-2-yl)methyl)(methyl)amino)cyclohexane-1-carboxylic acid] | 0.0947 | 87.3 |
| COc1nc(-c2cccc(-c3cccc(Nc4nc(C(F)F)nc5cc(CN6CC[C@H]([C@@H](C)O)C6)cnc45)c3C)c2Cl)cnc1CN(C)[C@H]1CC[C@H](C(=O)O)CC1 [Example 44, (1r,4r)-4-(((5-(2-chloro-3′-((2-(difluoromethyl)-7-(((S)-3-((R)-1-hydroxyethyl)pyrrolidin-1-yl)methyl)pyrido[3,2-d]pyrimidin-4-yl)amino)-2′-methyl-[1,1′-biphenyl]-3-yl)-3-methoxypyrazin-2-yl)methyl)(methyl)amino)cyclohexane-1-carboxylic acid] | 0.0845 | 69 |
| COc1nc(-c2cccc(-c3cccc(Nc4nc(C(F)F)nc5cc(CN6CC[C@@H](O)C6)cnc45)c3Cl)c2Cl)cnc1CN(C)[C@H]1CC[C@H](C(=O)O)CC1 [Example 35, (1r,4r)-4-(((5-(2,2′-dichloro-3′-((2-(difluoromethyl)-7-(((R)-3-hydroxypyrrolidin-1-yl)methyl)pyrido[3,2-d]pyrimidin-4-yl)amino)-[1,1′-biphenyl]-3-yl)-3-methoxypyrazin-2-yl)methyl)(methyl)amino)cyclohexane-1-carboxylic acid] | 0.0461 | 102 |
| [2H]C([2H])([2H])N(Cc1ncc(-c2cccc(-c3cccc(Nc4nc(C(F)F)nc5cc(CN6CC[C@@H](O)C6)cnc45)c3C)c2Cl)nc1OC)[C@H]1CC[C@H](C(=O)O)CC1 [Example 32, (1r,4r)-4-(((5-(2-chloro-3′-((2-(difluoromethyl)-7-(((R)-3-hydroxypyrrolidin-1-yl)methyl)pyrido[3,2-d]pyrimidin-4-yl)amino)-2′-methyl-[1,1′-biphenyl]-3-yl)-3-methoxypyrazin-2-yl)methyl)(methyl-d3)amino)cyclohexane-1-carboxylic acid] | 0.0763 | 84.1 |
| COc1nc(-c2cccc(-c3cccc(Nc4nc(C(F)F)nc5cc(CN6CC[C@@H](O)C6)cnc45)c3C)c2Cl)cnc1CN[C@H]1CC[C@H](C(=O)O)CC1 [Example 33, (1r,4r)-4-(((5-(2-chloro-3′-((2-(difluoromethyl)-7-(((R)-3-hydroxypyrrolidin-1-yl)methyl)pyrido[3,2-d]pyrimidin-4-yl)amino)-2′-methyl-[1,1′-biphenyl]-3-yl)-3-methoxypyrazin-2-yl)methyl)amino)cyclohexane-1-carboxylic acid] | 0.0586 | 95.3 |
| O=C(O)C1CCN(Cc2ccnc(Nc3cccc(-c4cccc(Nc5nc(C(F)F)nc6cc(CN7CC[C@@H](O)C7)cnc56)c4Cl)c3Cl)c2F)CC1 [Example 36, (R)-1-((2-((2,2′-dichloro-3′-((2-(difluoromethyl)-7-((3-hydroxypyrrolidin-1-yl)methyl)pyrido[3,2-d]pyrimidin-4-yl)amino)-[1,1′-biphenyl]-3-yl)amino)-3-fluoropyridin-4-yl)methyl)piperidine-4-carboxylic acid] | 0.0555 | 85 |
| COc1nc(-c2cccc(-c3cccc(Nc4nc(C(F)F)nc5cc(CN6CC[C@@H](O)C6)cnc45)c3C)c2C)cnc1CN(C)[C@H]1CC[C@H](C(=O)O)CC1 [Example 27, (1r,4r)-4-(((5-(3′-((2-(difluoromethyl)-7-(((R)-3-hydroxypyrrolidin-1-yl)methyl)pyrido[3,2-d]pyrimidin-4-yl)amino)-2,2′-dimethyl-[1,1′-biphenyl]-3-yl)-3-methoxypyrazin-2-yl)methyl)(methyl)amino)cyclohexane-1-carboxylic acid] | 0.112 | 63 |
| COc1nc(-c2cccc(-c3cccc(Nc4nc(C(F)F)nc5cc(CN6CC[C@@H](OC(F)F)C6)cnc45)c3C)c2Cl)cnc1CN(C)[C@H]1CC[C@H](C(=O)O)CC1 [Example 42, (1r,4r)-4-(((5-(2-chloro-3′-((7-(((R)-3-(difluoromethoxy)pyrrolidin-1-yl)methyl)-2-(difluoromethyl)pyrido[3,2-d]pyrimidin-4-yl)amino)-2′-methyl-[1,1′-biphenyl]-3-yl)-3-methoxypyrazin-2-yl)methyl)(methyl)amino)cyclohexane-1-carboxylic acid] | 0.0909 | 74 |

Reference: patent US20260234140A1, “PYRIDOPYRIMIDINE DERIVATIVE AND USE THEREOF” (SUNSHINE LAKE PHARMA CO., LTD., priority 2023, published 2026)
